The nature of series [1]: MDR1 LLC-PK1 and BCRP MDCKII permeability assay: permeability coefficient (Papp).
For a further series, the target named is P-gp (MDR1) (Homo sapiens (Human), UniProt P08183). Kind of series: MDR1 LLC-PK1 permeability assay: efflux ratio. The note with it: pig, LLC-PK1.
Another series has as its target BCRP (Homo sapiens (Human), UniProt Q9UNQ0). Kind of series: BCRP MDCKII permeability assay: efflux ratio. The note with it: dog.
Series [2] concerns the target full-length FLAG-tagged B-Raf(V600E) (Homo sapiens (Human), UniProt P15056, V600E). Put plainly: BRAF V600E enzyme assay (TR-FRET competitive displacement of fluorescent tracer). The class given is binding. The source says:
A competitive displacement assay was configured for B-Raf that monitors the amount of a fluorescently-tagged “tracer” bound to B-Raf via TR-FRET from an anti-tag Eu-labeled antibody also bound to B-Raf.
[formula] • where: • Xmax Average Uninhibited Controls • Xmin Average Background
A 4-parameter logistic model was the fit to the POC data for each compound.
For orientation: TR-FRET usually uses a lanthanide donor and a delayed reading to cut background.

Where [3] appears, read: averaged IC50, 60 min at ambient temperature, 11-point dosing, top dose 10 μM.

Where a name gives a salt, the structure may show the parent alone. Read-outs that look alike come from different tables or passages of the source.

Chain of full-length FLAG-tagged B-Raf(V600E) (P15056 whole entry V600E): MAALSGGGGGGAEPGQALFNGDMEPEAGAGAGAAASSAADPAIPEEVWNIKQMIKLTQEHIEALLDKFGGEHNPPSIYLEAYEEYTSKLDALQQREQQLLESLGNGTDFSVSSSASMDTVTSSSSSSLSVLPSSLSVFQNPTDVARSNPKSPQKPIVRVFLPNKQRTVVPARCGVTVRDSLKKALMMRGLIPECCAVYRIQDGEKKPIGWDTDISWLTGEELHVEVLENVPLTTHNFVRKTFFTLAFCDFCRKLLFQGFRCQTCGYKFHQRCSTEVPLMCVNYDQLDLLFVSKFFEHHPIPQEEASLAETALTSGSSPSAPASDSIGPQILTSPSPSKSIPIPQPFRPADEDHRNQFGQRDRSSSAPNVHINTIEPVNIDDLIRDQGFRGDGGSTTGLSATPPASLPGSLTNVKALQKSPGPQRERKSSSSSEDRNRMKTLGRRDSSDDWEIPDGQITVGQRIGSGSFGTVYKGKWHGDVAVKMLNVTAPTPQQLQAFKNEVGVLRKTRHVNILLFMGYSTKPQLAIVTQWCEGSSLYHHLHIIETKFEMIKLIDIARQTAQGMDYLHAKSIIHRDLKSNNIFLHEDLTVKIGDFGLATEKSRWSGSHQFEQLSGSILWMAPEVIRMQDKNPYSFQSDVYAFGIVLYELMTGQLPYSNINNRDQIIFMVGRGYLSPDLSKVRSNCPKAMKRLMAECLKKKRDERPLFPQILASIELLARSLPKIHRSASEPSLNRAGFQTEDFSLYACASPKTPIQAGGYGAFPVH
Chain of BCRP (Q9UNQ0 whole entry, species assumed): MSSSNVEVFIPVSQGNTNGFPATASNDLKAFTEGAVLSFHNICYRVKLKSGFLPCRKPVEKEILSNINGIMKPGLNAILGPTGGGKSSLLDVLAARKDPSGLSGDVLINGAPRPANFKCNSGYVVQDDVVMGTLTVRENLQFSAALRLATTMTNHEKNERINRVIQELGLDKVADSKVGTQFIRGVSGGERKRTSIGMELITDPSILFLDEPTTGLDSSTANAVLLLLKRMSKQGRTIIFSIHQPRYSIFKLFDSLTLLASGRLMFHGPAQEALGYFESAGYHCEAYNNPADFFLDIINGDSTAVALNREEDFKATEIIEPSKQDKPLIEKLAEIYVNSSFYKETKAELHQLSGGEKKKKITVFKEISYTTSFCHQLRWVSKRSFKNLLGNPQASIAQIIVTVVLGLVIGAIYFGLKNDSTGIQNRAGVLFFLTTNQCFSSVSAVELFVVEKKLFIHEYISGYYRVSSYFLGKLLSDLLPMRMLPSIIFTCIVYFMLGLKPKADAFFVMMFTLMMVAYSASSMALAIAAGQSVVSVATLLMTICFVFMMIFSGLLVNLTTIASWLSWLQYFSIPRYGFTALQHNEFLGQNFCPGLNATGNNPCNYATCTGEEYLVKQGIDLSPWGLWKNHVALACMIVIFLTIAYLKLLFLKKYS
Chain of P-gp (MDR1) (P08183 whole entry, species assumed): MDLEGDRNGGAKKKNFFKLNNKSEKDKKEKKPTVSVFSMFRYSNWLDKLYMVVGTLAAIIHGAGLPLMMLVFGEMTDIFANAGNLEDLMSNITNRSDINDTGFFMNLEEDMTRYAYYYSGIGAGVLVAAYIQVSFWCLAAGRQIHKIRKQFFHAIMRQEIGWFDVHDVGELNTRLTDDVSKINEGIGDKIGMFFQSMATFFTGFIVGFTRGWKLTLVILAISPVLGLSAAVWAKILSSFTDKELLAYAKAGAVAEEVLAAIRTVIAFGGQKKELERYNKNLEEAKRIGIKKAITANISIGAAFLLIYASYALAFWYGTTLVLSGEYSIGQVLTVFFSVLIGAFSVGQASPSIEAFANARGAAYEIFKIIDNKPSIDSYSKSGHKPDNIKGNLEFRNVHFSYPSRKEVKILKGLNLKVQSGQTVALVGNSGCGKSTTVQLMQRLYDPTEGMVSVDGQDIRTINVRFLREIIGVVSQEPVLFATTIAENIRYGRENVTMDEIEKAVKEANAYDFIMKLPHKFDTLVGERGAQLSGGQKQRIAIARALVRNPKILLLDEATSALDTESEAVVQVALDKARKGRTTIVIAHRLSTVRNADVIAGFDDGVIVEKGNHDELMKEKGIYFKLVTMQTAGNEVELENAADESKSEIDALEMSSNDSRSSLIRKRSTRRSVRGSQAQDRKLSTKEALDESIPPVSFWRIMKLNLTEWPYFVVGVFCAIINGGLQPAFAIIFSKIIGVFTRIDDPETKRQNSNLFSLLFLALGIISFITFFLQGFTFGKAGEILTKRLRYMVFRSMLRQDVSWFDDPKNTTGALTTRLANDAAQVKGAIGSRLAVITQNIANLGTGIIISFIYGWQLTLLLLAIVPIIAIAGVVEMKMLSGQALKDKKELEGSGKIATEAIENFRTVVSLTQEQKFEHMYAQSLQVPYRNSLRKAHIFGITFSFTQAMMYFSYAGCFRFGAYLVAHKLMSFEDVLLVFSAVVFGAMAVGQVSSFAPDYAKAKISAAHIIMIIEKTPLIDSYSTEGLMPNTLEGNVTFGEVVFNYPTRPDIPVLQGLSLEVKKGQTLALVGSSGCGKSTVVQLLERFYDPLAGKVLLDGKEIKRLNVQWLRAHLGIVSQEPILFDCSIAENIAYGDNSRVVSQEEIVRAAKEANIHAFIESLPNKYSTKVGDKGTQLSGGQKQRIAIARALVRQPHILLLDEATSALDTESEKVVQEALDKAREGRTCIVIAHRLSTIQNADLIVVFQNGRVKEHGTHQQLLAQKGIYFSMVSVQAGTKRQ

As to `CCCS(=O)(=O)Nc1cc(F)cc(Nc2ccc3ncn(C)c(=O)c3c2C)c1F` [Example 11, N-(3-((3,5-dimethyl-4-oxo-3,4-dihydroquinazolin-6-yl)amino)-2,5-difluorophenyl)propane-1-sulfonamide], the Papp (as a rule, the rate of passage across a membrane or cell layer, normalised by area and donor concentration) at 2 h, 1 µM in series [1] was 28.6 ×10⁻⁶ cm/s. The results for the efflux ratio at 2 h, 1 µM on P-gp (MDR1) and at BCRP were 1.65 and 2.35, respectively. The IC50 (as a rule, the midpoint of a concentration-inhibition curve) in series [2] (setting [3]) came out at 16.1 nM.

Regarding `CCCS(=O)(=O)Nc1cc(F)cc(Nc2ccc3ncn(C)c(=O)c3c2C)c1Cl` [Example 12, N-(2-chloro-3-((3,5-dimethyl-4-oxo-3,4-dihydroquinazolin-6-yl)amino)-5-fluorophenyl)propane-1-sulfonamide], in series [1], the Papp at 2 h, 1 µM was found to be 27 ×10⁻⁶ cm/s. Further, the efflux ratio (usually the permeability from basolateral to apical divided by that in the opposite direction, in the common usage) at 2 h, 1 µM on P-gp (MDR1) was 0.93; on BCRP, 1.13. The compound also had an IC50 in series [2] (setting [3]) of 9.75 nM.

In series [1], `CCCS(=O)(=O)Nc1cc(Cl)cc(Nc2ccc3ncn(C)c(=O)c3c2C)c1F` [Example 13, N-(5-chloro-3-((3,5-dimethyl-4-oxo-3,4-dihydroquinazolin-6-yl)amino)-2-fluorophenyl)propane-1-sulfonamide] showed a Papp at 2 h, 1 µM of 24.3 ×10⁻⁶ cm/s. Further, the efflux ratio at 2 h, 1 µM on P-gp (MDR1) came to 1.35; on BCRP, 1.51. This compound returned an IC50 in series [2] (setting [3]) of 4.6 nM.

Take `CCCS(=O)(=O)Nc1ccc(Cl)c(Nc2ccc3ncn(C)c(=O)c3c2C)c1Cl` [Example 14, N-(2,4-dichloro-3-((3,5-dimethyl-4-oxo-3,4-dihydroquinazolin-6-yl)amino)phenyl)propane-1-sulfonamide]: the Papp at 2 h, 1 µM in series [1] was 26.5 ×10⁻⁶ cm/s. Moreover, the efflux ratio at 2 h, 1 µM was 1.38 at P-gp (MDR1) and 1.08 at BCRP. For the same compound, the IC50 in series [2] (setting [3]) amounted to 13.9 nM.

With `CCCS(=O)(=O)Nc1ncc(Cl)c(Nc2ccc3ncn(C)c(=O)c3c2C)c1Cl` [Example 15, N-(3,5-dichloro-4-((3,5-dimethyl-4-oxo-3,4-dihydroquinazolin-6-yl)amino)pyridin-2-yl)propane-1-sulfonamide], in series [1], the Papp at 2 h, 1 µM came to 24.1 ×10⁻⁶ cm/s. Moreover, the efflux ratio at 2 h, 1 µM at P-gp (MDR1) is 1.87; on BCRP, 4.5. In series [2] (setting [3]), the IC50 was 4.55 nM.

The compound `CCCS(=O)(=O)Nc1ncc(F)c(Nc2ccc3ncn(C)c(=O)c3c2C)c1F` [Example 16, N-(4-((3,5-dimethyl-4-oxo-3,4-dihydroquinazolin-6-yl)amino)-3,5-difluoropyridin-2-yl)propane-1-sulfonamide] displayed a Papp at 2 h, 1 µM in series [1] of 21.3 ×10⁻⁶ cm/s. In addition, the efflux ratio at 2 h, 1 µM came to 4.76 at P-gp (MDR1) and 20.3 on BCRP. The IC50 in series [2] (setting [3]) stood at 17 nM.

Regarding `Cc1c(Nc2c(F)cnc(NS(=O)(=O)CCCF)c2F)ccc2ncn(C)c(=O)c12` [Example 17, N-(4-((3,5-dimethyl-4-oxo-3,4-dihydroquinazolin-6-yl)amino)-3,5-difluoropyridin-2-yl)-3-fluoropropane-1-sulfonamide], in series [1], the Papp at 2 h, 1 µM worked out at 6.65 ×10⁻⁶ cm/s. Further, the efflux ratio at 2 h, 1 µM came out at 5.07 on P-gp (MDR1) and 25.3 at BCRP. The same compound came in with an IC50 in series [2] (setting [3]) of 9.7 nM.

`CCCS(=O)(=O)Nc1ncc(F)c(Nc2ccc3ncn(C)c(=O)c3c2C)c1Cl` [Example 18, N-(3-chloro-4-((3,5-dimethyl-4-oxo-3,4-dihydroquinazolin-6-yl)amino)-5-fluoropyridin-2-yl)propane-1-sulfonamide] showed a Papp at 2 h, 1 µM in series [1] of 27.9 ×10⁻⁶ cm/s. Besides, the figures for the efflux ratio at 2 h, 1 µM at P-gp (MDR1) and at BCRP were 1.52 and 10.4, respectively. This compound showed a concentration for half-maximal inhibition (IC50) in series [2] (setting [3]) of 7.85 nM.

As for `Cc1c(Nc2c(F)cnc(NS(=O)(=O)CCCF)c2Cl)ccc2ncn(C)c(=O)c12` [Example 19, N-(3-chloro-4-((3,5-dimethyl-4-oxo-3,4-dihydroquinazolin-6-yl)amino)-5-fluoropyridin-2-yl)-3-fluoropropane-1-sulfonamide], the Papp at 2 h, 1 µM in series [1] amounted to 15.9 ×10⁻⁶ cm/s. For the same compound, the efflux ratio at 2 h, 1 µM on P-gp (MDR1) came to 3.24; on BCRP, 21.1. Besides, the IC50 in series [2] (setting [3]) stood at 6.2 nM.

In series [1], `Cc1c(Nc2c(F)ccc(NS(=O)(=O)c3ccco3)c2Cl)ccc2ncn(C)c(=O)c12` [Example 20, N-(2-chloro-3-((3,5-dimethyl-4-oxo-3,4-dihydroquinazolin-6-yl)amino)-4-fluorophenyl)furan-2-sulfonamide] yielded a Papp at 2 h, 1 µM of 32.9 ×10⁻⁶ cm/s. Also, the efflux ratio at 2 h, 1 µM on P-gp (MDR1) came to 1.86; on BCRP it was 7.43. The IC50 in series [2] (setting [3]) amounted to 0.7 nM.

`Cc1c(Nc2c(F)ccc(NS(=O)(=O)N3CCCC3)c2Cl)ccc2ncn(C)c(=O)c12` [Example 21, N-(2-chloro-3-((3,5-dimethyl-4-oxo-3,4-dihydroquinazolin-6-yl)amino)-4-fluorophenyl)pyrrolidine-1-sulfonamide]: in series [1], the Papp at 2 h, 1 µM is 19.2 ×10⁻⁶ cm/s. The efflux ratio at 2 h, 1 µM at P-gp (MDR1) worked out at 1.22; on BCRP, 0.77. The compound further returned an IC50 in series [2] (setting [3]) of 34.7 nM.

With `Cc1c(Nc2c(F)ccc(NS(=O)(=O)N3CC[C@@H](F)C3)c2Cl)ccc2ncn(C)c(=O)c12` [Example 22, (R)—N-(2-chloro-3-((3,5-dimethyl-4-oxo-3,4-dihydroquinazolin-6-yl)amino)-4-fluorophenyl)-3-fluoropyrrolidine-1-sulfonamide], the Papp at 2 h, 1 µM in series [1] came out at 34.3 ×10⁻⁶ cm/s. For the same compound, the figures for the efflux ratio at 2 h, 1 µM at P-gp (MDR1) and at BCRP were 1.63 and 1.49, respectively. Besides, the IC50 in series [2] (setting [3]) stood at 13.7 nM.

The compound `[2H]C([2H])([2H])n1cnc2ccc(Nc3c(F)ccc(NS(=O)(=O)CCC)c3Cl)c(C)c2c1=O` [Example 24, N-(2-chloro-4-fluoro-3-((5-methyl-3-(methyl-d3)-4-oxo-3,4-dihydroquinazolin-6-yl)amino)phenyl)propane-1-sulfonamide] showed a Papp at 2 h, 1 µM in series [1] of 25.6 ×10⁻⁶ cm/s. The efflux ratio at 2 h, 1 µM is 1.59 at P-gp (MDR1) and 1.18 on BCRP. Also, the IC50 in series [2] worked out at 9.05 nM.

On to `Cc1c(Nc2c(F)ccc(NS(=O)(=O)c3cc(F)ccc3F)c2Cl)ccc2ncn(C)c(=O)c12` [Example 25, N-(2-chloro-3-((3,5-dimethyl-4-oxo-3,4-dihydroquinazolin-6-yl)amino)-4-fluorophenyl)-2,5-difluorobenzenesulfonamide], for which the Papp at 2 h, 1 µM in series [1] came out at 22.1 ×10⁻⁶ cm/s. Moreover, the efflux ratio at 2 h, 1 µM at P-gp (MDR1) was 1.82; on BCRP, 1.8. This compound yielded an IC50 in series [2] (setting [3]) of 0.34 nM.

Regarding `Cc1c(Nc2c(F)ccc(NS(=O)(=O)c3ccccn3)c2Cl)ccc2ncn(C)c(=O)c12` [Example 26, N-(2-chloro-3-((3,5-dimethyl-4-oxo-3,4-dihydroquinazolin-6-yl)amino)-4-fluorophenyl)pyridine-2-sulfonamide], in series [1], the Papp at 2 h, 1 µM turned out to be 30.2 ×10⁻⁶ cm/s. The efflux ratio at 2 h, 1 µM at P-gp (MDR1) stood at 2.04; on BCRP, 6.46. In series [2] (setting [3]), this compound displayed an IC50 of 49.2 nM.

In turn, `COCCS(=O)(=O)Nc1ccc(F)c(Nc2ccc3ncn(C)c(=O)c3c2C)c1Cl` [Example 27, N-(2-chloro-3-((3,5-dimethyl-4-oxo-3,4-dihydroquinazolin-6-yl)amino)-4-fluorophenyl)-2-methoxyethane-1-sulfonamide] registered a Papp at 2 h, 1 µM in series [1] of 34.5 ×10⁻⁶ cm/s. Besides, the efflux ratio at 2 h, 1 µM was 1.4 on P-gp (MDR1) and 2.09 on BCRP. Also, the IC50 in series [2] (setting [3]) is 207 nM.

Turning to `CCCS(=O)(=O)Nc1ccc(F)c(Nc2ccc3ncn(C)c(=O)c3c2C)c1C#N` [Example 28, N-(2-cyano-3-((3,5-dimethyl-4-oxo-3,4-dihydroquinazolin-6-yl)amino)-4-fluorophenyl)propane-1-sulfonamide], the Papp at 2 h, 1 µM in series [1] was 26.8 ×10⁻⁶ cm/s. Further, the values for the efflux ratio at 2 h, 1 µM on P-gp (MDR1) and at BCRP were 6.46 and 33, respectively. In series [2] (setting [3]), the IC50 is 2 nM.

Compound `CCCS(=O)(=O)Nc1ccc(F)c(Nc2ccc3ncn(Cc4ccccc4)c(=O)c3c2C)c1Cl` [Example 29, N-(3-((3-benzyl-5-methyl-4-oxo-3,4-dihydroquinazolin-6-yl)amino)-2-chloro-4-fluorophenyl)propane-1-sulfonamide] returned a Papp at 2 h, 1 µM in series [1] of 12 ×10⁻⁶ cm/s. In addition, the efflux ratio at 2 h, 1 µM on P-gp (MDR1) was 1.61; on BCRP, 0.87. In series [2] (setting [3]), this compound displayed an IC50 of 174 nM.

Compound `CCCS(=O)(=O)Nc1ccc(F)c(Nc2ccc3ncn(CCOC)c(=O)c3c2C)c1Cl` [Example 30, N-(2-chloro-4-fluoro-3-((3-(2-methoxyethyl)-5-methyl-4-oxo-3,4-dihydroquinazolin-6-yl)amino)phenyl)propane-1-sulfonamide] displayed a Papp at 2 h, 1 µM in series [1] of 24.8 ×10⁻⁶ cm/s. The efflux ratio at 2 h, 1 µM worked out at 2.59 at P-gp (MDR1) and 1.92 on BCRP. Further, the IC50 in series [2] (setting [3]) worked out at 45.5 nM.

As to `CCCS(=O)(=O)Nc1ccc(F)c(Nc2ccc3ncn(C4CC4)c(=O)c3c2C)c1Cl` [Example 31, N-(2-chloro-3-((3-cyclopropyl-5-methyl-4-oxo-3,4-dihydroquinazolin-6-yl)amino)-4-fluorophenyl)propane-1-sulfonamide trifluoroacetate], in series [1], the Papp at 2 h, 1 µM worked out at 24.5 ×10⁻⁶ cm/s. Besides, the efflux ratio at 2 h, 1 µM at P-gp (MDR1) amounted to 1.59; on BCRP, 1.64. The IC50 in series [2] (setting [3]) turned out to be 25.1 nM.

Regarding `CCCS(=O)(=O)Nc1ccc(F)c(Nc2ccc3ncn(-c4ccccc4)c(=O)c3c2C)c1Cl` [Example 32, N-(2-chloro-4-fluoro-3-((5-methyl-4-oxo-3-phenyl-3,4-dihydroquinazolin-6-yl)amino)phenyl)propane-1-sulfonamide trifluoroacetate], in series [1], the Papp at 2 h, 1 µM was 15.6 ×10⁻⁶ cm/s. Further, the efflux ratio at 2 h, 1 µM at P-gp (MDR1) worked out at 0.86; on BCRP, 1. Also, in series [2] (setting [3]), the IC50 was determined as 92.7 nM.

Values taken from US11414404B2, “Compounds for the treatment of BRAF-associated diseases and disorders” (Array BioPharma Inc., priority 2019, dated 2022).
